For data set [1], the system named is RAW264.7. Briefly: Antiinflammatory activity against LPS-stimulated mouse RAW264.7 cells assessed as inhibition of TNFalpha production at 1 to 15 uM after 18 hrs by ELISA. The data set is classed as functional, cell-based. (An ELISA detects its analyte on a solid surface through an enzyme-linked reagent.)
In data set [2] the test system is RAW264.7. Briefly: Antiinflammatory activity against LPS-stimulated mouse RAW264.7 cells assessed as inhibition of IL1-beta production at 1 to 15 uM after 18 hrs by ELISA. The data set is classed as functional, cell-based.
For data set [3], the system named is RAW264.7. Briefly: Antiinflammatory activity against LPS-stimulated mouse RAW264.7 cells assessed as inhibition of IL-6 production at 1 to 15 uM after 18 hrs by ELISA. In kind it is functional, cell-based.
For data set [4], the system named is HaCaT. Kind of data set: Antiinflammatory activity against IFN-gamma-stimulated human HaCaT cells assessed as inhibition of chemokine MDC production at 50 to 100 uM after 18 hrs by ELISA. In kind it is functional, cell-based.
Data set [5] relates to HaCaT. Briefly: Cytotoxicity against human HaCaT cells at 50 to 100 uM after 24 hrs by MTT assay. The data set is classed as cell-based. A general note: Tetrazolium dyes change colour on reduction, which living cells bring about.
Data set [6] has as its system RAW264.7. Briefly: Antiinflammatory activity against LPS-stimulated mouse RAW264.7 cells assessed as inhibition of NO production at 3.125 to 25 uM after 24 hrs by Griess method. In kind it is functional, cell-based. On the technique in general: The Griess reaction detects nitrite, a stable product of nitric oxide.
Data set [7] concerns RAW264.7. Kind of data set: Cytotoxicity against mouse RAW264.7 cells at 50 uM after 24 hrs by MTT assay. The data set is classed as cell-based. Particulars: raw264.7, 24 h.
The subject of data set [8] is RAW264.7. Kind of data set: Cytotoxicity against mouse RAW264.7 cells at 100 uM after 24 hrs by MTT assay. Particulars: raw264.7, 24 h. In kind it is cell-based.
Data set [9] in a line: Cytotoxicity against mouse RAW264.7 cells after 24 hrs by MTT assay. Particulars: read-out: TC50. The data set is classed as cell-based.

From ChEMBL document CHEMBL1671795, “Evaluation of endogenous fatty acid amides and their synthetic analogues as potential anti-inflammatory leads” (Bioorg Med Chem, 2011) come the findings set out here.

For orientation: IC50 means the concentration at which inhibition is half-maximal.

In the case of `CCCCCCCC/C=C\CCCCCCCC(=O)NCc1ccc(O)c(OC)c1` [OLVANIL], the Activity entry in the data set with RAW264.7 [1] was “Dose-dependent effect”; in the data set with RAW264.7 [2] it was “Dose-dependent effect”; in the data set with RAW264.7 [3], “Dose-dependent effect”; in the data set with HaCaT [4], “Non-toxic”; in the data set with HaCaT [5] it was “Toxic”.
Consider `CCCCCCCCC(=O)/C=C/CCCCCCC(=O)NCCc1ccc(O)c(O)c1`, for which the Activity result in the data set with RAW264.7 [6] was “Dose-dependent effect”; with RAW264.7 [7], “Toxic”; in the data set with RAW264.7 [8], “Toxic”; with RAW264.7 [1], “Dose-dependent effect”; with RAW264.7 [2] it was “Dose-dependent effect”; in the data set with RAW264.7 [3], “Dose-dependent effect”. Moreover, the Activity result in the data set on HaCaT [4] was “Non-toxic”; in the data set with HaCaT [5] it was “Toxic”. Besides, the IC50 in the data set on RAW264.7 [6] (Mus musculus, RAW264.7, 24 h) is 2 µM. Moreover, the CC50 at 24 h in [9] is 13 µM.
Take `CCCCC/C=C\C/C=C\CCCCCCCC(=O)NCCc1ccc(O)c(O)c1`: the Activity result with RAW264.7 [6] was “Dose-dependent effect”; in the data set with RAW264.7 [6] (record 2) it was 2 µM; with RAW264.7 [7], “Toxic”; with RAW264.7 [8], “Toxic”; with RAW264.7 [1], “Dose-dependent effect”; in the data set with RAW264.7 [2], “Dose-dependent effect”. Also, the Activity result with RAW264.7 [3] is “Dose-dependent effect”; in the data set with HaCaT [4] it was “Non-toxic”; with HaCaT [5] it was “Toxic”. The CC50 at 24 h in [9] came out at 13 µM.
With `CCCCCCCCC(=O)/C=C/CCCCCCC(=O)NCCCl`, the Activity entry with RAW264.7 [6] is “Dose-dependent effect”; in the data set on RAW264.7 [7] it was “Toxic”; in the data set on RAW264.7 [8], “Toxic”; in the data set on HaCaT [4] it was “Non-toxic”; with HaCaT [5], “Toxic”.
Turning to `CCCCCCCCCCCCCCCC(=O)NCCc1ccc(O)c(O)c1` [PALMITOYL DOPAMINE], the Activity result is “Dose-dependent effect” with RAW264.7 [6]; 2 µM with RAW264.7 [6] (record 2); “Toxic” with RAW264.7 [7]; “Toxic” in the data set with RAW264.7 [8]; “Dose-dependent effect” in the data set on RAW264.7 [1]; “Dose-dependent effect” in the data set on RAW264.7 [2]. The figures for the Activity entry with RAW264.7 [3], in the data set on HaCaT [4] and in the data set on HaCaT [5] were “Dose-dependent effect”, “Non-toxic” and “Toxic”, respectively. The CC50 at 24 h in data set [9] stood at 13 µM.
As for `CCCCCCCCC(=O)/C=C/CCCCCCC(=O)NCCc1c[nH]c2ccc(O)cc12`, the Activity result in the data set on RAW264.7 [6] was “Dose-dependent effect”; in the data set with RAW264.7 [7], “Toxic”; with RAW264.7 [8] it was “Toxic”; in the data set on HaCaT [4], “Non-toxic”; in the data set with HaCaT [5] it was “Toxic”.
For the compound `CCCCCCCCC(=O)/C=C/CCCCCCC(=O)NCC(O)CO` (racemic), the Activity entry is “Dose-dependent effect” with RAW264.7 [6]; “Toxic” in the data set on RAW264.7 [7]; “Toxic” in the data set on RAW264.7 [8]; “Non-toxic” in the data set with HaCaT [4]; “Toxic” with HaCaT [5].
As for `CCCCCCCCC(=O)/C=C/CCCCCCC(=O)NC(C)C`, the Activity entry in the data set with RAW264.7 [6] is “Dose-dependent effect”; in the data set on RAW264.7 [7], “Toxic”; in the data set on RAW264.7 [8] it was “Toxic”; with HaCaT [4], “Non-toxic”; in the data set with HaCaT [5] it was “Toxic”.
Consider `CCCCCCC/C=C/C(=O)CCCCCCCC(=O)NCC(=O)O`, for which the Activity entry with RAW264.7 [6] is “Dose-dependent effect”; with RAW264.7 [7], “Toxic”; in the data set on RAW264.7 [8], “Toxic”; in the data set on HaCaT [4], “Non-toxic”; in the data set with HaCaT [5], “Toxic”.
For `CCCCCCCCCCCCCCCC(=O)NCc1ccc(O)c(OC)c1`, the Activity result in the data set on RAW264.7 [1] was “Dose-dependent effect”; in the data set on RAW264.7 [2], “Dose-dependent effect”; in the data set with RAW264.7 [3], “Dose-dependent effect”; in the data set with HaCaT [4], “Non-toxic”; in the data set on HaCaT [5] it was “Toxic”.
In the case of `CCCCCCCCC(=O)/C=C/CCCCCCC(=O)NCCO`, the Activity entry in the data set on RAW264.7 [6] was “Dose-dependent effect”; with RAW264.7 [7], “Toxic”; in the data set with RAW264.7 [8], “Toxic”; in the data set on HaCaT [4], “Non-toxic”; with HaCaT [5] it was “Toxic”.
Take `CCCCCCCC/C=C\CCCCCCCC(=O)NCCc1ccc(O)c(O)c1` [OLEOYL DOPAMINE]: the Activity entry is “Dose-dependent effect” with RAW264.7 [6]; 2 µM with RAW264.7 [6] (record 2); “Toxic” in the data set on RAW264.7 [7]; “Toxic” with RAW264.7 [8]; “Dose-dependent effect” in the data set with RAW264.7 [1]; “Dose-dependent effect” in the data set with RAW264.7 [2]. For the same compound, the results for the Activity entry in the data set on RAW264.7 [3], in the data set on HaCaT [4] and in the data set with HaCaT [5] were “Dose-dependent effect”, “Non-toxic” and “Toxic”, respectively. In data set [9], the CC50 at 24 h turned out to be 13 µM.
For the compound `CCCCCCCC/C=C/C(=O)CCCCCCC(=O)NCC(=O)O`, the Activity entry is “Dose-dependent effect” in the data set on RAW264.7 [6]; “Toxic” in the data set on RAW264.7 [7]; “Toxic” in the data set with RAW264.7 [8]; “Non-toxic” in the data set with HaCaT [4]; “Toxic” in the data set on HaCaT [5].
Regarding `CC/C=C\C/C=C\C/C=C\CCCCCCCC(=O)NCc1ccc(O)c(OC)c1`, the Activity result was “Dose-dependent effect” with RAW264.7 [1]; “Dose-dependent effect” in the data set with RAW264.7 [2]; “Dose-dependent effect” in the data set with RAW264.7 [3]; “Non-toxic” with HaCaT [4]; “Toxic” with HaCaT [5].
`CCCCCCC/C=C/C(=O)CCCCCCCC(=O)NC(C)C`: the Activity result was “Toxic” in the data set on RAW264.7 [7], “Toxic” in the data set on RAW264.7 [8], “Non-toxic” in the data set on HaCaT [4] and “Toxic” with HaCaT [5].
For `CCCCCCC/C=C/C(=O)CCCCCCCC(=O)NCCCl`, the Activity result was “Toxic” in the data set on RAW264.7 [7], “Toxic” in the data set on RAW264.7 [8], “Non-toxic” in the data set on HaCaT [4] and “Toxic” in the data set on HaCaT [5].
As to `CCCCC/C=C\C/C=C\CCCCCCCC(=O)NCc1ccc(O)c(OC)c1`, the Activity result is “Dose-dependent effect” with RAW264.7 [1]; “Dose-dependent effect” with RAW264.7 [2]; “Dose-dependent effect” with RAW264.7 [3]; “Non-toxic” in the data set with HaCaT [4]; “Toxic” with HaCaT [5].
For the compound `CCCCCCCC/C=C\CCCCCCCCCCCC(=O)NCc1ccc(O)c(OC)c1`, the Activity entry in the data set with RAW264.7 [1] was “Dose-dependent effect”; in the data set on RAW264.7 [2], “Dose-dependent effect”; in the data set on RAW264.7 [3] it was “Dose-dependent effect”; in the data set on HaCaT [4], “Non-toxic”; with HaCaT [5], “Toxic”.
`CCCCCCCC(=O)/C=C/CCCCCCCC(=O)NCCc1ccc(O)c(O)c1`: the Activity entry in the data set on RAW264.7 [7] was “Toxic”; with RAW264.7 [8], “Toxic”; in the data set on HaCaT [4] it was “Non-toxic”; with HaCaT [5] it was “Toxic”.
Regarding `CCCCCCCCC(=O)/C=C/CCCCCCC(=O)N[C@H](C)CO`, the Activity entry is “Dose-dependent effect” in the data set on RAW264.7 [6]; “Toxic” with RAW264.7 [7]; “Toxic” in the data set with RAW264.7 [8]; “Non-toxic” with HaCaT [4]; “Toxic” in the data set on HaCaT [5].
Consider `CCCCCCCC/C=C/C(=O)CCCCCCC(=O)NCCCl`, for which the Activity entry in the data set on RAW264.7 [7] is “Toxic”; with RAW264.7 [8] it was “Toxic”; in the data set on HaCaT [4] it was “Non-toxic”; in the data set on HaCaT [5], “Toxic”.
Take `CCCCCCCC(=O)/C=C/CCCCCCCC(=O)NC(C)C`: the Activity result with RAW264.7 [7] was “Toxic”; in the data set on RAW264.7 [8] it was “Toxic”; in the data set with HaCaT [4], “Non-toxic”; with HaCaT [5], “Toxic”.
As for `CCCCCCCC/C=C/C(=O)CCCCCCC(=O)NCCc1c[nH]c2ccc(O)cc12`, the Activity result is “Toxic” with RAW264.7 [7], “Toxic” with RAW264.7 [8], “Non-toxic” in the data set with HaCaT [4] and “Toxic” with HaCaT [5].
Turning to `CCCCCCCC(=O)/C=C/CCCCCCCC(=O)N[C@H](C)CO`, the Activity result in the data set on RAW264.7 [7] was “Toxic”; in the data set on RAW264.7 [8], “Toxic”; in the data set with HaCaT [4], “Non-toxic”; with HaCaT [5], “Toxic”.
As for `CC/C=C\C/C=C\C/C=C\CCCCCCCC(=O)NCCc1ccc(O)c(O)c1` [LINOLEOYL DOPAMINE], the Activity entry with RAW264.7 [6] is “Dose-dependent effect”; in the data set with RAW264.7 [1] it was “Dose-dependent effect”; in the data set with RAW264.7 [2], “Dose-dependent effect”; with RAW264.7 [3], “Dose-dependent effect”; with HaCaT [4], “Non-toxic”.
`CCCCCCCC/C=C/C(=O)CCCCCCC(=O)NCCO`: the Activity result was “Toxic” in the data set on RAW264.7 [7], “Toxic” in the data set on RAW264.7 [8], “Non-toxic” in the data set on HaCaT [4] and “Toxic” in the data set on HaCaT [5].
For the compound `CCCCCCCC/C=C/C(=O)CCCCCCC(=O)NCC(O)CO` (racemic), the Activity entry in the data set on RAW264.7 [7] was “Toxic”; in the data set on RAW264.7 [8], “Toxic”; with HaCaT [4], “Non-toxic”; in the data set with HaCaT [5] it was “Toxic”.
As to `CCCCCCCC(=O)/C=C/CCCCCCCC(=O)NCC(O)CO` (racemic), the Activity result in the data set with RAW264.7 [7] was “Toxic”; in the data set on RAW264.7 [8] it was “Toxic”; in the data set with HaCaT [4], “Non-toxic”; in the data set with HaCaT [5] it was “Toxic”.
